The test system of one assay is MEK 1/2. Particulars: cited from earlier work.
A further assay concerns the target VEGFR 2 (Homo sapiens, UniProt P35968). Particulars: cited from earlier work.
For another assay, the system named is FLT 3/4. The following applies: cited from earlier work.
In assay [1] the test system is serine/threonine kinase MAPK (mitogen-activated protein kinase). The following applies: cited from earlier work.
Another assay has as its system Molm-14. Kind of assay: Suppressive activity against growth of AML cells (MTT assay). The class given is cell-based. The following applies: Homo sapiens; Molm-14 cancer cell line. On the technique in general: Tetrazolium assays rely on reduction of a dye to a coloured formazan, in cell work by metabolically active cells.
A further assay addresses FLT1/VEGFR1 (Homo sapiens, UniProt P17948). Kind of assay: Assay for inhibitory activity against kinase. Particulars: read-out: % Inhibition (1 uM).
The subject of a further assay is MV4-11 cell line. Kind of assay: Suppressive activity against growth of AML cells (MTT assay). Format: cell-based. The following applies: Homo sapiens, MV4-11 cancer cell line, 48 hrs treatment. The method, then:
The MV4-11 cell line was grown at 37° C. in RPMI medium [Gibco, New York, USA/10% FBS (Gibco), containing 1% penicillin/streptomycin (Gibco)] in a 5% CO2 atmosphere. The grown MV4-11 cell line was withdrawn into PBS, seeded at a density of 3×10^4 cells/well into 96-well plates, and cultured at 37° C. for 24 hrs in a 5% CO2 atmosphere. Various concentrations of the compound (8 points) were prepared by serial dilution in 10 mM DMSO, and the MV4-11 cell line was treated with various concentrations of the compound for 48 hrs. To assess cell viability, 3-(4,5-dimethylthiazol-2-yl)-2,5-diphenyl tetrazolium bromide (MTT) assay (CellTiter 96 Assay, Promega) was performed.
Briefly, the dye was added in an amount of 15 μL to each well and incubated for 2 hrs. Then, each well was incubated with 100 μL of a stop solution for 24 hrs, followed by reading absorbance at 590 nm on EnVision2103. GI50 was calculated using GraphPad Prism 4.0.

Another assay addresses PDGFRb (Homo sapiens, UniProt P09619). Nature of the assay: Assay for inhibitory activity against kinase. Particulars: read-out: % Inhibition (1 uM).

FLT1/VEGFR1, sequence (P17948 27-1338): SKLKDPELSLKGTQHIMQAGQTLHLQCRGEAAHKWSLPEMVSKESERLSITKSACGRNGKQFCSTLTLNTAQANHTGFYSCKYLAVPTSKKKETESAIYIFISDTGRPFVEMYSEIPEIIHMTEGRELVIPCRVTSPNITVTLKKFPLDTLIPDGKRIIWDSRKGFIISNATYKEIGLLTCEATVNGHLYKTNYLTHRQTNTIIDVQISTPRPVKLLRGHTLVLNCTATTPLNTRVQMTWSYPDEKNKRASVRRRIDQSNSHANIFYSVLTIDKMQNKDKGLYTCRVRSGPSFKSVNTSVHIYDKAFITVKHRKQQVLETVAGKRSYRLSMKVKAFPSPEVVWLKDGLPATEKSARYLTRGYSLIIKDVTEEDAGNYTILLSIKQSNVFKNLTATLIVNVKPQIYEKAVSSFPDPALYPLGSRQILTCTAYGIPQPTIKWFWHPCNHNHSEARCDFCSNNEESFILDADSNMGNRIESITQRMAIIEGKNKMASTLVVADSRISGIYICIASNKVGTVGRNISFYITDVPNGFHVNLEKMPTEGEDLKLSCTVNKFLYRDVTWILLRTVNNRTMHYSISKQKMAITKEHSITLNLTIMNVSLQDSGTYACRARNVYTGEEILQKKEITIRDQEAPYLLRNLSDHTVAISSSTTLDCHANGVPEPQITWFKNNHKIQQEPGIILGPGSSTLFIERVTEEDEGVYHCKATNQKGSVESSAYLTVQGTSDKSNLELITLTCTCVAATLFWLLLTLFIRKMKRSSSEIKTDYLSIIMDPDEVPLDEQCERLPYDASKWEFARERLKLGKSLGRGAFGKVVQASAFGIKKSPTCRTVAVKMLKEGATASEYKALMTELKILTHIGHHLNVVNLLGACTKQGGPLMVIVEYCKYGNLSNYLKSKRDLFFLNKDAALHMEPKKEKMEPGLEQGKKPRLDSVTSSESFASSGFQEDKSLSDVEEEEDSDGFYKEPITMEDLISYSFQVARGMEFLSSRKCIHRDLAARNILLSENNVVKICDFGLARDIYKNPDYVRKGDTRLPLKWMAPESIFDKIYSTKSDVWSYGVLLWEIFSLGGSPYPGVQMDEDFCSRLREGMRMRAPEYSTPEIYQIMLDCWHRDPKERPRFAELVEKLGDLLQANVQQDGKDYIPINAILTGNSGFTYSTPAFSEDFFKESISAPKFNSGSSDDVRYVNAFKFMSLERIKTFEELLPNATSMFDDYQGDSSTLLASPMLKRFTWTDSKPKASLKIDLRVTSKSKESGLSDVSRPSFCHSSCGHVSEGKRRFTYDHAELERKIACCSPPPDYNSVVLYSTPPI
VEGFR 2, sequence (P35968 20-1356, species assumed): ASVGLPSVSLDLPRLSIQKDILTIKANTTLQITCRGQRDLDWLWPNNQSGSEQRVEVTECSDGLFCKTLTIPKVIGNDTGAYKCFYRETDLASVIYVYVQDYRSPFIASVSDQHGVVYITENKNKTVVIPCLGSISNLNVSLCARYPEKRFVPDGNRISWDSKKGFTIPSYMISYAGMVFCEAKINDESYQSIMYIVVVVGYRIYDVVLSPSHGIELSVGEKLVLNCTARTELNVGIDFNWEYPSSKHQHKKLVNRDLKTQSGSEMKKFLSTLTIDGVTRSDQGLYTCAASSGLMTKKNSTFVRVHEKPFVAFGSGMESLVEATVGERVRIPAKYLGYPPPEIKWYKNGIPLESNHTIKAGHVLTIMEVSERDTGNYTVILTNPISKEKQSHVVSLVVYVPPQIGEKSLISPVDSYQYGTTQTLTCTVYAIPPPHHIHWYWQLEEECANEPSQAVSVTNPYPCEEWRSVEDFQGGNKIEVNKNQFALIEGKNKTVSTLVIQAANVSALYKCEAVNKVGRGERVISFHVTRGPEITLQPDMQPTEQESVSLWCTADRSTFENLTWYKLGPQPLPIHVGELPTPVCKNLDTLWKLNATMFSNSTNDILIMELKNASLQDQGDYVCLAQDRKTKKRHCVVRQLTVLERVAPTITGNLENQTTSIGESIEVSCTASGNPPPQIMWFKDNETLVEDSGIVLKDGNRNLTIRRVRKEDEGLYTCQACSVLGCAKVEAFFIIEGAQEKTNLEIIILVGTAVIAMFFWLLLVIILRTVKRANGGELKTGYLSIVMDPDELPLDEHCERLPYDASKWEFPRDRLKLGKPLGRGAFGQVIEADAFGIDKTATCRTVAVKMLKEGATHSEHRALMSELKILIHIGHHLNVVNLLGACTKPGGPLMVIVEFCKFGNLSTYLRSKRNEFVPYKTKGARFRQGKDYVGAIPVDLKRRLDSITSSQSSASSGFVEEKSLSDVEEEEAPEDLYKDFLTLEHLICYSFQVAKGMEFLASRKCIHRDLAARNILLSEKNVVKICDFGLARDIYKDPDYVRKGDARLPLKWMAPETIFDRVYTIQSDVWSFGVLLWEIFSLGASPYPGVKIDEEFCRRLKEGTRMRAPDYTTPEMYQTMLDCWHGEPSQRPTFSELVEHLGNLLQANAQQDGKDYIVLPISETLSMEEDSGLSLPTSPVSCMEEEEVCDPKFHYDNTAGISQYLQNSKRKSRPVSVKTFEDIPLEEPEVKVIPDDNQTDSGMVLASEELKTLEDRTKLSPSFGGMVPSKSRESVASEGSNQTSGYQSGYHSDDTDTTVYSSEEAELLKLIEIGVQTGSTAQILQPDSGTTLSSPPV
PDGFRb, sequence (P09619 33-1106): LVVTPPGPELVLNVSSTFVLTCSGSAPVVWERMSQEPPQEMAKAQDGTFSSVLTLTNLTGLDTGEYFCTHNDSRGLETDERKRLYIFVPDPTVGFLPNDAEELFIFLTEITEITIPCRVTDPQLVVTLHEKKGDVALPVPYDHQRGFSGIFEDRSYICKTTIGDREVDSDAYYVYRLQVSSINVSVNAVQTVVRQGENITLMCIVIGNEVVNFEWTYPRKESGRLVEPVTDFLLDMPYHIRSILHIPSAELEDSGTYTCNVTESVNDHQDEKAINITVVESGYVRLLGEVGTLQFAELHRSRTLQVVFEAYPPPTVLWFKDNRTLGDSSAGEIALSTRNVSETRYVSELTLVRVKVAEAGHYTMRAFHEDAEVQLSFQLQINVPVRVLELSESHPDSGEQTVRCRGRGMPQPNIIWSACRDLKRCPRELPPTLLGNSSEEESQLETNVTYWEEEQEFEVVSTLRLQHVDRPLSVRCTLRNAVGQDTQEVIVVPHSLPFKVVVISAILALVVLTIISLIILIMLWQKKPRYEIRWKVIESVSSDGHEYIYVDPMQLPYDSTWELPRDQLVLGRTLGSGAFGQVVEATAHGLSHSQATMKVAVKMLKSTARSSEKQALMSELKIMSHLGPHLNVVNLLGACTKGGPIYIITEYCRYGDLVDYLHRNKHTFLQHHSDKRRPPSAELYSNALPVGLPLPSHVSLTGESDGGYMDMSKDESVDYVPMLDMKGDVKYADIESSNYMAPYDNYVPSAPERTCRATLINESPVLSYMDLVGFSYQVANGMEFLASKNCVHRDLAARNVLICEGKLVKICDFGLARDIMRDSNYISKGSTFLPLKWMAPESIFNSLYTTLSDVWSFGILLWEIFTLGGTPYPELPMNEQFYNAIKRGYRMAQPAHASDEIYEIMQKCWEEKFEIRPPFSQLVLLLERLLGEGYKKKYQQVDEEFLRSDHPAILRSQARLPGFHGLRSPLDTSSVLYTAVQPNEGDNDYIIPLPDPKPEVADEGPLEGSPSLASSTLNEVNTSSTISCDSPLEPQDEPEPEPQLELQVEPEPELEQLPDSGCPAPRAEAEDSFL

On to `COc1cc(O)c2c(c1)CCC[C@H](O)[C@H](O)C(=O)/C=C\C[C@H](C)OC2=O` [Compound L-783277], for which the “inhibitory activity against MEK 1/2” value in the assay with MEK 1/2 is recorded as “potent inhibitory activity”. The “inhibitory activity against VEGFR 2” value at VEGFR 2 is recorded as “potent inhibitory activity”. For the same compound, in the assay with FLT 3/4, the “inhibitory activity against FLT 3/4” value is “potent inhibitory activity”. For the same compound, in assay [1], the “inhibition of MAPK (mode)” value is recorded as “irreversible ATP competitive inhibitor”.
One may read the GI50 as the concentration at which growth is held to half of that of the control. A high value points to less potent growth inhibition. A word on the inhibition: it is the share of the control response that was lost under treatment. Turning to `COc1cc(O)c2c(c1)-c1cccc(c1)[C@@H](O)[C@H](O)C(=O)/C=C\C[C@H](C)OC2=O` [Cpd. 24], the GI50 was found to be 90 nM with Molm-14 and 30 nM with MV4-11 cell line. The inhibition at 1 µM on FLT1/VEGFR1 stood at 64%; on PDGFRb it was 70%.

These data come from patent US20140155635A1, “RESORCYLIC ACID LACTONE COMPOUNDS” (KOREA INSTITUTE OF SCIENCE AND TECHNOLOGY, priority 2012, published 2014).
